Assay results as given in publication PMC7193943 (European journal of medicinal chemistry, 2019).

Experiments:
[1] = system: ALK-positive H2228 and ALK-negative H441 cells; assay: Live cell tracer uptake assay; format: cell-based, human; details: after 30 min of incubation
[2] = Solubility in aqueous media; format: physicochemical
H441 cells = assay: Cytotoxicity assay; format: cell-based, human; details: 72 h
[3] = system: P-glycoprotein efflux transporter; details: Caco-2 colorectal adenocarcinoma cells; cited from earlier work
[4] = mice, 24 h after oral administration; cited from earlier work

SMILES: Cc1cc(Nc2ncc(Cl)c(Nc3ccccc3S(=O)(=O)C(C)C)n2)c(OC(C)C)cc1C1CCN(CCF)CC1 [[^18F]9]
- cell-associated radioactivity, H2228 vs H441 [1]: higher uptake in the ALK-positive H2228 cells
- solubility in water or saline ([2]; water or saline): insoluble

SMILES: CCc1cc2c(cc1N1CCC(N3CCOCC3)CC1)C(C)(C)c1c(c3ccc(C#N)cc3n1CCF)C2=O [Compound 4, 9-Ethyl-6,6-dimethyl-8-[4-(morpholin-4-yl)piperidin-1-yl]-11-oxo-6,11-dihydro-5(2-fluoroethyl)-benzo[b]carbazole-3-carbonitrile]
- effect on ALK-negative H441 cells (cytotoxicity) (H441 cells): no substantial effect
- solubility in saline or PBS solutions [2]: not soluble

SMILES: C[C@@H](Oc1cc(-c2cnn(C3CCN(CCF)CC3)c2)cnc1N)c1c(Cl)ccc(F)c1Cl [Compound 1, 3-((R)-1-(2,6-dichloro-3-fluorophenyl)ethoxy)-5-(1-(fluoroethylpiperidin-4-yl)-1H-pyrazol-4-yl)pyridin-2-amine]
- fold loss of potency versus parent drug (H2228 cells): less than 3 fold
- solubility in saline or PBS solutions [2]: not soluble

SMILES: CCc1cc2c(cc1N1CCC(N3CCOCC3)CC1)C(C)(C)c1[nH]c3cc(C#N)ccc3c1C2=O [Alectinib, 9-Ethyl-6,6-dimethyl-8-[4-(morpholin-4-yl)piperidin-1-yl]-11-oxo-6,11-dihydro-5H-benzo[b]carbazole-3-carbonitrile]
- transport by the P-glycoprotein efflux transporter [3]: not transported

SMILES: Cc1cc(Nc2ncc(Cl)c(Nc3ccccc3S(=O)(=O)C(C)C)n2)c(OC(C)C)cc1C1CCNCC1 [Ceritinib, 5-Chloro-N2-(2-isopropoxy-5-methyl-4-(piperidin-4-yl)phenyl)-N4-(2-(isopropylsulfonyl)phenyl)pyrimidine-2,4-diamine, reference compound]
- IC50 (H2228 cells): 2.9 µM
- drug found in the brain [4]: 0.4%

SMILES: Cc1cc(Nc2ncc(Cl)c(Nc3ccccc3S(=O)(=O)C(C)C)n2)c(OC(C)C)cc1C1CCN(CCF)CC1 [Compound 9, 5-Chloro-N2–(2-isoprpoxy-5-methyl-4-(1-fluoroethylpiperidin-4-yl)phenyl)-N4-[2-(propane-2-sulfonyl)phenyl]pyrimidine-2,4-diamine]
- fold loss of potency versus parent drug (H2228 cells): ~10 fold
- solubility in saline or PBS solutions [2]: not soluble
